Data taken from patent US20240391965A1, “STAPLED ANTIMICROBIAL PEPTIDES (STAMPS) AND USES THEREOF” (Lytica Therapeutics, Inc., priority 2021, published 2024).
In brackets after ≈: the same amount, converted by molar mass. Starred links: 1 amine or outer side, 2 acyl side, 3 side chain; linkers in the order of their positions; H or OH if unused. Positions of bridges follow the written chain, without caps; N, C: chain ends. Residues, ends and D or L forms follow the SMILES beside them. Biphenyl(4,4'-CH2)2 = c1cc(-c2ccc(C[*:2])cc2)ccc1C[*:1]; mXylylene = c1cc(C[*:1])cc(C[*:2])c1; pXylylene = c1cc(C[*:2])ccc1C[*:1]; X1 = C(=CC[*:2])C[*:1]

What was measured:
[1] = 48 hours cytotoxicity assay (CellTiter-Glo), liver toxicity; assay type: cell-based, human
Method in brief: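 HepG2 cells in EMEM with 10% FBS, allowed to attach 4 h, then exposed to serially diluted StAMPs or vehicle for 48 h at 37 °C. Viability read by CellTiter-Glo luminescence.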

[2] = 90 minute cytotoxicity assay (LDH release), renal toxicity; assay type: cell-based
Text: In some embodiments, a peptide provided herein has renal toxicity that is at least 10% (e.g., at least 15%, at least 20%, at least 25%, at least 30%, at least 35%, at least 40%, at least 45%, at least 50%, at least 55%, at least 60%, at least 65%, at least 65%, at least 70%, at least 75%, at least 80%, at least 85%, at least 90%, at least 95%, at least 99%) lower than the renal toxicity of the reference. The renal toxicity of a peptide can be measured in vitro using a renal proximal tubule epithelial cell (RPTEC) renal toxicity assay.
Cell culture: RPTEC were maintained in MEM media supplemented with growth factors. HEPG2 cell line was maintained in Eagle's Minimum Essential Medium (EMEM) supplemented with fetal bovine serum to a final concentration of 10%.
90 minute cytotoxicity assay: Cells were plated in a 96-well format, and after overnight incubation, media was replaced with fresh media. Serial dilutions of StAMPs from a 5 mg/mL water stock, or vehicle, were added to the cells in a final volume of 100 μl. After incubating at 37° C. for 90 min, 50 μl of cell culture media was transferred to a clear 96-well plate, incubated with 50 μl of lactate dehydrogenase (LDH) assay reagent for 10 min, and absorbance measured at 490 nm on a microplate reader.
Renal toxicity was measured after 90 minutes of incubation, while liver toxicity was measured after 48 hours of incubation with StAMPs. N/A=not tested.

Compound	IC50 [1] [µg/mL]	IC50 [2] [µg/mL]
CC[C@H](C)[C@H](NC(=O)[C@H](CC(C)C)NC(=O)[C@H](CC(C)C)NC(=O)[C@H](CC(N)=O)NC(=O)[C@H](CCCCN)NC(=O)[C@@H](NC(=O)[C@H](CCCCN)NC(=O)[C@H](CCCCN)NC(=O)CNC(=O)[C@H](C)NC(=O)[C@H](CC(C)C)NC(=O)[C@@H]1CSCC=CCSC[C@H](N)C(=O)N[C@@H]([C@@H](C)CC)C(=O)N[C@@H](Cc2ccccc2)C(=O)N[C@@H](CO)C(=O)N1)[C@@H](C)CC)C(=O)N[C@@H](CO)C(=O)NCC(=O)N[C@@H](CC(C)C)C(=O)N[C@@H](CCCCN)C(=O)NCC(N)=O [compound 38] (H-CIFSCLAGKKIKNLLISGLKG-NH2; linker 1-5 via X1; N-terminus assumed)	> 200	> 200
CC[C@H](C)[C@H](NC(=O)CN)C(=O)N[C@H]1CSCc2cccc(c2)CSC[C@@H](C(=O)NCC(=O)N[C@@H](CCCCN)C(=O)N[C@@H](CCCCN)C(=O)N[C@H](C(=O)N[C@@H](CCCCN)C(=O)N[C@@H](CC(N)=O)C(=O)N[C@@H](CC(C)C)C(=O)N[C@@H](CC(C)C)C(=O)N[C@H](C(=O)N[C@@H](CO)C(=O)NCC(=O)N[C@@H](CC(C)C)C(=O)N[C@@H](CCCCN)C(=O)NCC(N)=O)[C@@H](C)CC)[C@@H](C)CC)NC(=O)[C@H](CC(C)C)NC(=O)[C@H](CCCCN)NC(=O)[C@H](CO)NC1=O [compound 39] (H-GICSKLCGKKIKNLLISGLKG-NH2; linker 3-7 via mXylylene)	103 (≈ 45.3 µM)	113 (≈ 49.7 µM)
CC[C@H](C)[C@H](NC(=O)CN)C(=O)N[C@H]1CSCc2ccc(cc2)CSC[C@@H](C(=O)NCC(=O)N[C@@H](CCCCN)C(=O)N[C@@H](CCCCN)C(=O)N[C@H](C(=O)N[C@@H](CCCCN)C(=O)N[C@@H](CC(N)=O)C(=O)N[C@@H](CC(C)C)C(=O)N[C@@H](CC(C)C)C(=O)N[C@H](C(=O)N[C@@H](CO)C(=O)NCC(=O)N[C@@H](CC(C)C)C(=O)N[C@@H](CCCCN)C(=O)NCC(N)=O)[C@@H](C)CC)[C@@H](C)CC)NC(=O)[C@H](CC(C)C)NC(=O)[C@H](CCCCN)NC(=O)[C@H](CO)NC1=O [compound 40] (H-GICSKLCGKKIKNLLISGLKG-NH2; linker 3-7 via pXylylene; N-terminus assumed)	124 (≈ 54.5 µM)	117 (≈ 51.4 µM)
CC[C@H](C)[C@H](NC(=O)CN)C(=O)N[C@@H](Cc1ccccc1)C(=O)N[C@@H](CO)C(=O)N[C@@H](CCCCN)C(=O)N[C@H]1CSCc2cccc(c2)CSC[C@@H](C(=O)N[C@H](C(=O)N[C@@H](CCCCN)C(=O)N[C@@H](CC(N)=O)C(=O)N[C@@H](CC(C)C)C(=O)N[C@@H](CC(C)C)C(=O)N[C@H](C(=O)N[C@@H](CO)C(=O)NCC(=O)N[C@@H](CC(C)C)C(=O)N[C@@H](CCCCN)C(=O)NCC(N)=O)[C@@H](C)CC)[C@@H](C)CC)NC(=O)[C@H](CCCCN)NC(=O)CNC(=O)[C@H](C)NC1=O [compound 41] (H-GIFSKCAGKCIKNLLISGLKG-NH2; linker 6-10 via mXylylene; N-terminus assumed)	21 (≈ 9.33 µM)	58 (≈ 25.8 µM)
CC[C@H](C)[C@H](NC(=O)CN)C(=O)N[C@@H](Cc1ccccc1)C(=O)N[C@@H](CO)C(=O)N[C@@H](CCCCN)C(=O)N[C@@H](CC(C)C)C(=O)N[C@@H](C)C(=O)NCC(=O)N[C@H]1CSCc2cccc(c2)CSC[C@@H](C(=O)N[C@@H](CC(C)C)C(=O)N[C@@H](CC(C)C)C(=O)N[C@H](C(=O)N[C@@H](CO)C(=O)NCC(=O)N[C@@H](CC(C)C)C(=O)N[C@@H](CCCCN)C(=O)NCC(N)=O)[C@@H](C)CC)NC(=O)[C@H](CCCCN)NC(=O)[C@H]([C@@H](C)CC)NC(=O)[C@H](CCCCN)NC1=O [compound 42] (H-GIFSKLAGCKIKCLLISGLKG-NH2; linker 9-13 via mXylylene; N-terminus assumed)	> 200	> 200
CC[C@H](C)[C@H](NC(=O)CN)C(=O)N[C@@H](Cc1ccccc1)C(=O)N[C@@H](CO)C(=O)N[C@@H](CCCCN)C(=O)N[C@@H](CC(C)C)C(=O)N[C@@H](C)C(=O)NCC(=O)N[C@H]1CSCC=CCSC[C@@H](C(=O)N[C@@H](CC(C)C)C(=O)N[C@@H](CC(C)C)C(=O)N[C@H](C(=O)N[C@@H](CO)C(=O)NCC(=O)N[C@@H](CC(C)C)C(=O)N[C@@H](CCCCN)C(=O)NCC(N)=O)[C@@H](C)CC)NC(=O)[C@H](CCCCN)NC(=O)[C@H]([C@@H](C)CC)NC(=O)[C@H](CCCCN)NC1=O [compound 43] (H-GIFSKLAGCKIKCLLISGLKG-NH2; linker 9-13 via X1; N-terminus assumed)	> 200	> 200
CC[C@H](C)[C@H](NC(=O)CN)C(=O)N[C@@H](Cc1ccccc1)C(=O)N[C@@H](CO)C(=O)N[C@@H](CCCCN)C(=O)N[C@@H](CC(C)C)C(=O)N[C@@H](C)C(=O)NCC(=O)N[C@@H](CCCCN)C(=O)N[C@@H](CCCCN)C(=O)N[C@H](C(=O)N[C@@H](CCCCN)C(=O)N[C@@H](CC(N)=O)C(=O)N[C@@H](CC(C)C)C(=O)N[C@@H](CC(C)C)C(=O)N[C@H](C(=O)N[C@H]1CSCc2cccc(c2)CSC[C@@H](C(N)=O)NC(=O)[C@H](CCCCN)NC(=O)[C@H](CC(C)C)NC(=O)CNC1=O)[C@@H](C)CC)[C@@H](C)CC [compound 44] (H-GIFSKLAGKKIKNLLICGLKC-NH2; linker 17-21 via mXylylene; N-terminus assumed)	48 (≈ 20.4 µM)	86 (≈ 36.6 µM)
CC[C@H](C)[C@H](NC(=O)CN)C(=O)N[C@@H](Cc1ccccc1)C(=O)N[C@@H](CO)C(=O)N[C@@H](CCCCN)C(=O)N[C@@H](CC(C)C)C(=O)N[C@@H](C)C(=O)NCC(=O)N[C@@H](CCCCN)C(=O)N[C@@H](CCCCN)C(=O)N[C@H](C(=O)N[C@@H](CCCCN)C(=O)N[C@@H](CC(N)=O)C(=O)N[C@@H](CC(C)C)C(=O)N[C@@H](CC(C)C)C(=O)N[C@H](C(=O)N[C@H]1CSCc2ccc(cc2)CSC[C@@H](C(N)=O)NC(=O)[C@H](CCCCN)NC(=O)[C@H](CC(C)C)NC(=O)CNC1=O)[C@@H](C)CC)[C@@H](C)CC [compound 45] (H-GIFSKLAGKKIKNLLICGLKC-NH2; linker 17-21 via pXylylene; N-terminus assumed)	83 (≈ 35.3 µM)	105 (≈ 44.7 µM)
CC[C@H](C)[C@H](NC(=O)[C@H](CC(C)C)NC(=O)[C@H](CC(C)C)NC(=O)[C@H](CC(N)=O)NC(=O)[C@H](CCCCN)NC(=O)[C@@H](NC(=O)[C@H](CCCCN)NC(=O)[C@@H]1CSCc2ccc(cc2)-c2ccc(cc2)CSC[C@H](NC(=O)CN)C(=O)N[C@@H](Cc2ccccc2)C(=O)N[C@@H](CO)C(=O)N[C@@H](CCCCN)C(=O)N[C@@H](CC(C)C)C(=O)N[C@@H](C)C(=O)NCC(=O)N1)[C@@H](C)CC)C(=O)N[C@@H](CO)C(=O)NCC(=O)N[C@@H](CC(C)C)C(=O)N[C@@H](CCCCN)C(=O)NCC(N)=O [compound 53] (H-GCFSKLAGCKIKNLLISGLKG-NH2; linker 2-9 via Biphenyl(4,4'-CH2)2; N-terminus assumed)	78 (≈ 33.5 µM)	40 (≈ 17.2 µM)
CC[C@H](C)[C@H](NC(=O)CN)C(=O)N[C@H]1CSCc2ccc(cc2)-c2ccc(cc2)CSC[C@@H](C(=O)N[C@H](C(=O)N[C@@H](CCCCN)C(=O)N[C@@H](CC(N)=O)C(=O)N[C@@H](CC(C)C)C(=O)N[C@@H](CC(C)C)C(=O)N[C@H](C(=O)N[C@@H](CO)C(=O)NCC(=O)N[C@@H](CC(C)C)C(=O)N[C@@H](CCCCN)C(=O)NCC(N)=O)[C@@H](C)CC)[C@@H](C)CC)NC(=O)[C@H](CCCCN)NC(=O)CNC(=O)[C@H](C)NC(=O)[C@H](CC(C)C)NC(=O)[C@H](CCCCN)NC(=O)[C@H](CO)NC1=O [compound 56] (H-GICSKLAGKCIKNLLISGLKG-NH2; linker 3-10 via Biphenyl(4,4'-CH2)2; N-terminus assumed)	34 (≈ 14.8 µM)	17 (≈ 7.41 µM)
